We go through 13 substances from patent publication US12605753B2, “Enhanced microbial production of biosurfactants and other products, and uses thereof” (LOCUS SOLUTIONS IPCO, LLC, priority 2015, dated 2026).

The test system of this series is Bacillus subtilis B1, B2, and B3 strains. Nature of the series: PCR with primers for unique signature sequences. The note with it: amplicon generated by the forward/reverse primer pair (LSBS n-F / n-R) specific for Bacillus subtilis B1, B2, B3 strains. The text has this:
Table 7 below depicts thirteen (13) pairs of primers specifically designed for the Bacillus subtilis B1, B2, and B3 strains. All 13 primers generate unique PCR amplicons for identifying the Bacillus subtilis strains of the present invention. The subsequent PCR products are unique and are not found performing a search (i.e., BLAST search) in a database such as the GenBank database.
On to “LSBS 1-F (DNA GGACACAGATCATTGGGAGTT; listed as DNA, chemistry not given here)”, for which the “PCR Product Size (bp)” value amounted to 769 bp.

As to “LSBS 2-F (DNA TCAATTCCTCTGCACCACTTAT; listed as DNA, chemistry not given here)”, the “PCR Product Size (bp)” value worked out at 906 bp.

As to “LSBS 3-F (DNA CGGAGTTTGTTAGCGAAGTTATTG; listed as DNA, chemistry not given here)”, the “PCR Product Size (bp)” value came out at 543 bp.

Regarding “LSBS 4-F (DNA CATGCGGAACTCCAATTTCTTC; listed as DNA, chemistry not given here)”, the “PCR Product Size (bp)” value amounted to 263 bp.

With “LSBS 5-F (DNA CCATTAGGGTCAACATGGTCTAA; listed as DNA, chemistry not given here)”, the “PCR Product Size (bp)” value amounted to 273 bp.

Consider “LSBS 6-F (DNA CACCGAACTCTGCTGAGAAA; listed as DNA, chemistry not given here)”, for which the “PCR Product Size (bp)” value came out at 523 bp.

As to “LSBS 7-F (DNA CCTCTGCCCAAGACATATCAA; listed as DNA, chemistry not given here)”, the “PCR Product Size (bp)” value worked out at 913 bp.

For “LSBS 8-F (DNA GCTGTAGACGACTGGGTACTA; listed as DNA, chemistry not given here)”, the “PCR Product Size (bp)” value was found to be 750 bp.

Turning to “LSBS 9-F (DNA GCCATCAGGCTGTTTGTAGA; listed as DNA, chemistry not given here)”, the “PCR Product Size (bp)” value is recorded as 679 bp.

As for “LSBS 10-F (DNA CAGATGAAGTTGGTGGTGTTTC; listed as DNA, chemistry not given here)”, the “PCR Product Size (bp)” value amounted to 743 bp.

As for “LSBS 11-F (DNA ATGCGGCTAGACATGGATATG; listed as DNA, chemistry not given here)”, the “PCR Product Size (bp)” value is on record as 687 bp.

For “LSBS 12-F (DNA TGTCCCTCTTTAGGTGCTATTG; listed as DNA, chemistry not given here)”, the “PCR Product Size (bp)” value is 954 bp.

As for “LSBS 13-F (DNA CCCTCTAGCTCTTTCTTCTTCAC; listed as DNA, chemistry not given here)”, the “PCR Product Size (bp)” value is recorded as 496 bp.
